# Experimental data reported in patent US7846655B2, “Compositions and methods for detecting a non plus-stranded RNA virus” (priority 2003, dated 2010).
# Read-outs that look alike come from different tables or passages of the source.
# Key:
# [1] = system: influenza B; assay type: cell-based; conditions: FluB, 24 hours, control 455 ± 022
# [2] = system: parainfluenza 1; assay type: cell-based; conditions: Para1, 24 hours, control 245 ± 018
# [3] = system: parainfluenza 2; assay type: cell-based; conditions: Para2, 24 hours, control 243 ± 012
# [4] = system: adenovirus; assay type: cell-based; conditions: Adeno, 24 hours, control 863 ± 100
# [5] = system: RSV; assay type: cell-based; conditions: 24 hours, control 116 ± 012
# [6] = system: human coronavirus 229E; experiment: Replication of human coronavirus 229E (inventors' data, E64); assay type: cell-based; conditions: no conditions given
# [7] = system: parainfluenza 3; assay type: cell-based; conditions: Para3, 24 hours, control 142 ± 014
# [8] = system: influenza A; assay type: cell-based; conditions: FluA, 24 hours, control 189 ± 012
# [9] = system: SARS-coronavirus; conditions: Yount et al. PNAS 100:12995-13000 (2003); cited from earlier work
# [10] = Glycycrrhizin 0.152 micrograms/ml
# [11] = Glycycrrhizin 1.216 micrograms/ml
# [12] = Glycycrrhizin 6.08 micrograms/ml
smiles,measurement,setting,value
"CC(C)C[C@H](NC(=O)[C@H]1O[C@@H]1C(=O)O)C(=O)NCCCCN=C(N)N (relative stereo) [E64, trans-Epoxysuccinyl-L-leucylamido-(4-guanidino)butane]",Number of Infected Foci In R-Mix Cell Cultures,[1]; E64 0.5 micrograms/ml,398
same,Number of Infected Foci In R-Mix Cell Cultures,[1]; E64 5 micrograms/ml,328
same,Number of Infected Foci In R-Mix Cell Cultures,[1]; E64 10 micrograms/ml,323
same,Number of Infected Foci In R-Mix Cell Cultures,[2]; E64 0.5 micrograms/ml,251
same,Number of Infected Foci In R-Mix Cell Cultures,[2]; E64 5 micrograms/ml,243
same,Number of Infected Foci In R-Mix Cell Cultures,[2]; E64 10 micrograms/ml,207
same,Number of Infected Foci In R-Mix Cell Cultures,[3]; E64 0.5 micrograms/ml,223
same,Number of Infected Foci In R-Mix Cell Cultures,[3]; E64 5 micrograms/ml,221
same,Number of Infected Foci In R-Mix Cell Cultures,[3]; E64 10 micrograms/ml,205
same,Number of Infected Foci In R-Mix Cell Cultures,[4]; E64 0.5 micrograms/ml,904
same,Number of Infected Foci In R-Mix Cell Cultures,[4]; E64 5 micrograms/ml,868
same,Number of Infected Foci In R-Mix Cell Cultures,[4]; E64 10 micrograms/ml,865
same,Number of Infected Foci In R-Mix Cell Cultures,[5]; E64 0.5 micrograms/ml,107
same,Number of Infected Foci In R-Mix Cell Cultures,[5]; E64 5 micrograms/ml,115
same,Number of Infected Foci In R-Mix Cell Cultures,[5]; E64 10 micrograms/ml,103
same,replication of human coronavirus 229E,[6],inhibition in replication
same,Number of Infected Foci In R-Mix Cell Cultures,[7]; E64 0.5 micrograms/ml,127
same,Number of Infected Foci In R-Mix Cell Cultures,[7]; E64 5 micrograms/ml,99
same,Number of Infected Foci In R-Mix Cell Cultures,[8]; E64 0.5 micrograms/ml,174
same,Number of Infected Foci In R-Mix Cell Cultures,[8]; E64 5 micrograms/ml,179
same,Number of Infected Foci In R-Mix Cell Cultures,[8]; E64 10 micrograms/ml,176
"CCOC(=O)[C@H]1O[C@@H]1C(=O)N[C@@H](CC(C)C)C(=O)NCCC(C)C [(2S,3S)transepoxysuccinyl-L-leucylamido-3-methylbutane ethyl ester]",replication of SARS-coronavirus,[9],inhibition in replication
CCCCC[C@H](CC(=O)NO)C(=O)N[C@H](C(=O)N1CCC[C@H]1CO)C(C)C [Actinonin],Number of Infected Foci In R-Mix Cell Cultures,[1]; Actinonin 10 micrograms/ml,317
same,Number of Infected Foci In R-Mix Cell Cultures,[1]; Actinonin 20 micrograms/ml,260
same,Number of Infected Foci In R-Mix Cell Cultures,[1]; Actinonin 40 micrograms/ml,190
same,Number of Infected Foci In R-Mix Cell Cultures,[2]; Actinonin 10 micrograms/ml,222
same,Number of Infected Foci In R-Mix Cell Cultures,[2]; Actinonin 20 micrograms/ml,191
same,Number of Infected Foci In R-Mix Cell Cultures,[2]; Actinonin 40 micrograms/ml,160
same,Number of Infected Foci In R-Mix Cell Cultures,[3]; Actinonin 10 micrograms/ml,220
same,Number of Infected Foci In R-Mix Cell Cultures,[3]; Actinonin 20 micrograms/ml,196
same,Number of Infected Foci In R-Mix Cell Cultures,[3]; Actinonin 40 micrograms/ml,151
same,Number of Infected Foci In R-Mix Cell Cultures,[4]; Actinonin 10 micrograms/ml,781
same,Number of Infected Foci In R-Mix Cell Cultures,[4]; Actinonin 20 micrograms/ml,383
same,Number of Infected Foci In R-Mix Cell Cultures,[4]; Actinonin 40 micrograms/ml,147
same,Number of Infected Foci In R-Mix Cell Cultures,[5]; Actinonin 10 micrograms/ml,103
same,Number of Infected Foci In R-Mix Cell Cultures,[5]; Actinonin 20 micrograms/ml,64
same,Number of Infected Foci In R-Mix Cell Cultures,[5]; Actinonin 40 micrograms/ml,41
same,Number of Infected Foci In R-Mix Cell Cultures,[7]; Actinonin 10 micrograms/ml,115
same,Number of Infected Foci In R-Mix Cell Cultures,[7]; Actinonin 20 micrograms/ml,104
same,Number of Infected Foci In R-Mix Cell Cultures,[7]; Actinonin 40 micrograms/ml,75
same,Number of Infected Foci In R-Mix Cell Cultures,[8]; Actinonin 10 micrograms/ml,171
same,Number of Infected Foci In R-Mix Cell Cultures,[8]; Actinonin 20 micrograms/ml,122
same,Number of Infected Foci In R-Mix Cell Cultures,[8]; Actinonin 40 micrograms/ml,118
"CC1(C)[C@@H](O[C@H]2O[C@H](C(=O)O)[C@@H](O)[C@H](O)[C@H]2O[C@@H]2O[C@H](C(=O)O)[C@@H](O)[C@H](O)[C@H]2O)CC[C@]2(C)[C@H]3C(=O)C=C4[C@@H]5C[C@@](C)(C(=O)O)CC[C@]5(C)CC[C@@]4(C)[C@]3(C)CC[C@@H]12 [Glycycrrhizin, Glycyrrhizin]",Number of Infected Foci In R-Mix Cell Cultures,[1]; [10],426
same,Number of Infected Foci In R-Mix Cell Cultures,[1]; [11],402
same,Number of Infected Foci In R-Mix Cell Cultures,[1]; [12],273
same,Number of Infected Foci In R-Mix Cell Cultures,[2]; [10],268
same,Number of Infected Foci In R-Mix Cell Cultures,[2]; [11],233
same,Number of Infected Foci In R-Mix Cell Cultures,[2]; [12],295
same,Number of Infected Foci In R-Mix Cell Cultures,[3]; [10],265
same,Number of Infected Foci In R-Mix Cell Cultures,[3]; [11],257
same,Number of Infected Foci In R-Mix Cell Cultures,[3]; [12],281
same,Number of Infected Foci In R-Mix Cell Cultures,[4]; [10],766
same,Number of Infected Foci In R-Mix Cell Cultures,[4]; [11],938
same,Number of Infected Foci In R-Mix Cell Cultures,[4]; [12],1061
same,Number of Infected Foci In R-Mix Cell Cultures,[5]; [10],130
same,Number of Infected Foci In R-Mix Cell Cultures,[5]; [11],103
same,Number of Infected Foci In R-Mix Cell Cultures,[5]; [12],53
same,Number of Infected Foci In R-Mix Cell Cultures,[7]; [10],138
same,Number of Infected Foci In R-Mix Cell Cultures,[7]; [11],149
same,Number of Infected Foci In R-Mix Cell Cultures,[7]; [12],138
same,Number of Infected Foci In R-Mix Cell Cultures,[8]; [10],218
same,Number of Infected Foci In R-Mix Cell Cultures,[8]; [11],175
same,Number of Infected Foci In R-Mix Cell Cultures,[8]; [12],163
